Experiments:
15-bp dsDNA = experiment: Real-time SYBR Green I (SG) fluorescence assay of duplex DNA (dsDNA); format: binding; details: dsDNA/peptoid complexes
Protocol: A15-bp dsDNA was designed with a sequence of 5′-[…]-3′ (SEQ ID NO: 124) with a complementary sequence of 5′-[…]-3′ (SEQ ID NO: 125). The dsDNA (500 μM) was formed in PBS (1×) buffer and cooled from 70° C. to room temperature over 11 h. Next, the dsDNA (100 nM) solution was mixed with different peptoid solutions at varied concentrations in PBS overnight at room temperature. Prior to measuring fluorescence, SG (1×) was added to the dsDNA/peptoid mixtures for 2 h at room temperature. The fluorescence signal was recorded from 37° C. to 85° C. at a step of 0.03° C./sec by LightCycler 480. The concentrations of only peptoids in solution were the same as those in the N/P of 8, which were 3.43 μM for PE1, PE3, PE4, PE5, and 1.85 μM for PE2, respectively.

[1] = test system: octahedra-shaped DNA origamis (OCs); experiment: Negative-stained TEM imaging of peptoid-coated OCs; format: physicochemical; details: N/P 0.5, 0.25, 0.1; TAE 12.5 mM MgCl2
Protocol: Preparation of peptoid-coated OCs. The synthesized peptoids were dissolved in deionized water at a concentration of 10 mM and stored at 4° C.
Negative-stained TEM imaging. […] In brief, […] of the peptoid-coated OC (5-10 nM) solution was dropped on a carbon film for 1-3 min and the residual liquid was removed with a piece of filter paper. After that, the grid was washed with […] of deionized water followed by staining with […] of 2 wt % uranyl acetate for 15 sec. The excess liquid was removed with filter papers. TEM imaging was performed on a JEOL 1400 TEM with an acceleration voltage of 120 kV.

deoxyribonuclease I (DN) = experiment: Nuclease degradation assays (AGE, TEM, DLS); details: DN 15 μg/mL, 30 min, 37° C., N/P 0.5
Protocol: The samples were incubated at 37° C. for 30 min at 650 rpm on a thermal cycler (Eppendorf) and characterized using AGE and negative-stained TEM imaging.

trypsin = experiment: Fluorescence assay for tryptic digestion of BSA; format: biochemical; details: trypsin 50 nM, 37° C.
Protocol: First, NHS-fluorescein (240 μM) and NHS-PEG-azide (60 μM) was mixed with BSA (10 μM) in PBS (1×) buffer for 3 h at room temperature. The solution was purified 8 times with PBS using a 50 kDa filter and centrifuged at 3000 rcf and at 4° C. Next, the DBCO-modified single-stranded DNA (ssHy, 5′-[…]/3DBCO/, 250 μM) (SEQ ID NO: 1) was mixed with the BSA solution (10 μM) overnight (˜12 h) at 4° C. The solution was purified 8 times with PBS using a 50 kDa filter and centrifuged at 3000 rcf at 4° C. Finally, the surface-modified BSA (200 nM) was added to the OCs (40 nM) and the solution was cooled down from 45° C. to room temperature over a time course of 60 h. The solution was purified 2 times with TAE (1×) buffer containing 12.5 mM MgCl2 using a 100 kDa filter and centrifuged at 400 rcf and at 4° C.
(1) The fluorescein-modified BSA (80 nM) solution without OCs was incubated at 37° C. in the presence or absence of trypsin (50 nM) overnight ˜12 h prior to fluorescence measurement. Fluorescence spectra were measured with excitation and emission wavelengths of 490 nm and 510-750 nm, respectively and a step size of 2 nm. […] The fluorescence kinetics were measured at λex and λem of 490 nm and 525 nm, respectively and time interval of 3 min. Fluorescence spectra were measured after 15 h at excitation and emission wavelengths of 490 nm and 510-800 nm, respectively and a step size of 2 nm.

Molecule	relative performance in raising the Tm of the dsDNA (ranking) (15-bp dsDNA)	morphology / aggregation of peptoid-coated OCs (TEM) [1]	OC structure after incubation with DN (TEM) (deoxyribonuclease I (DN))	fluorescence enhancement of fluorescein labeled BSA in the presence of trypsin (trypsin) [%]
COCCOCCOCCN(CC(N)=O)C(=O)CN(CCOC)C(=O)CN(CCOCCOCCOC)C(=O)CN(CCN)C(=O)CN(CCOCCOCCOC)C(=O)CN(CCOC)C(=O)CN(CCOCCOCCOC)C(=O)CN(CCN)C(=O)CN(CCOCCOCCOC)C(=O)CN(CCOC)C(=O)CN(CCOCCOCCOC)C(=O)CN(CCN)C(=O)CN(CCOCCOCCOC)C(=O)CN(CCOC)C(=O)CN(CCOCCOCCOC)C(=O)CN(CCN)C(=O)CN(CCOCCOCCOC)C(=O)CN(CCOC)C(=O)CN(CCOCCOCCOC)C(=O)CN(CCN)C(=O)CN(CCOCCOCCOC)C(=O)CN(CCOC)C(=O)CN(CCOCCOCCOC)C(=O)CNCCN [PE3, Nae6-Nte12 brush]	Tm (dsDNA/PE3)>Tm (dsDNA/PE5)	less aggregation than PE1	some extents of capability to preserve the origami structure	–
COCCOCCOCCN(CC(N)=O)C(=O)CN(CCOCCOCCOC)C(=O)CN(CCOCCOCCOC)C(=O)CN(CCOCCOCCOC)C(=O)CN(CCOCCOCCOC)C(=O)CN(CCOCCOCCOC)C(=O)CN(CCN)C(=O)CN(CCN)C(=O)CN(CCN)C(=O)CN(CCN)C(=O)CN(CCN)C(=O)CNCCN [PE4, Nae6-Nte6 block]	Tm (dsDNA/PE2)>Tm (dsDNA/PE1)>Tm (dsDNA/PE4)	–	some extents of capability to preserve the origami structure	–
fluorescein labeled BSA: bovine serum albumin modified with fluorescein, trypsin substrate [reference compound]	–	–	–	85
